Data from ChEMBL document CHEMBL1201862, “PubChem BioAssay data set” (2004).
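Growth conditions: 96-well plates. Treatment: test compound, 48 hours, 5 concentrations. Analysis: linear interpolation between bracketing concentrations; unreached endpoints set to highest concentration. GI50 = concentration required for 50% inhibition of growth.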 Active and inactive are the calls of the source. Rule as the data show it: active = GI50 up to about 1.1 µM and inactive = higher.

Legend:
Assay in all cases: NCI tumour cell line growth inhibition, 48 h
HCT-15 = tested on: HCT-15
HL-60 = tested on: HL-60
SF-268 = tested on: SF-268
ACHN = tested on: ACHN
SK-MEL-28 = tested on: SK-MEL-28
A498 = tested on: A498
HCT-116 = tested on: HCT-116
SF-295 = tested on: SF-295
OVCAR-4 = tested on: OVCAR-4
HOP-62 = tested on: HOP-62
UO-31 = tested on: UO-31
RXF 393 = tested on: RXF 393
SN12C = tested on: SN12C
NCI-H226 = tested on: NCI-H226
MOLT-4 = tested on: MOLT-4
786-0 = tested on: 786-0
TK-10 = tested on: TK-10
CCRF-CEM = tested on: CCRF-CEM
DMS-114 = tested on: DMS-114
UACC-257 = tested on: UACC-257

For `COC1=C(OC)C(=O)c2cc(SC)c(=O)c(SC)cc2C1=O`, the GI50 (HCT-15) was 25.1 µM, the GI50 (HL-60) was 1.68 µM (inactive) and the GI50 (SF-268) was 12.8 µM (inactive). The GI50 (ACHN) was 12.8 µM (inactive), the GI50 (SK-MEL-28) was 13.5 µM (inactive) and the GI50 (A498) was 24.5 µM (inactive). The GI50 (HCT-116) was 20 µM (inactive), the GI50 (SF-295) was 15.7 µM (inactive) and the GI50 (OVCAR-4) was 12.2 µM (inactive). For the same molecule, the GI50 (HOP-62) was 15 µM (inactive), the GI50 (UO-31) was 19.8 µM (inactive) and the GI50 (RXF 393) was 4.9 µM (inactive). For the same molecule, the GI50 (SN12C) was 14.7 µM (inactive), the GI50 (NCI-H226) was 13.5 µM (inactive) and the GI50 (MOLT-4) was 3.79 µM (inactive). For the same molecule, the GI50 (786-0) was 17.3 µM (inactive), the GI50 (TK-10) was 59 µM (inactive) and the GI50 (CCRF-CEM) was 2.34 µM (inactive). For the same molecule, the GI50 (DMS-114) was 3.4 µM (inactive) and the GI50 (UACC-257) was 6.65 µM (inactive).
